Data on 20 compounds can be found in ChEMBL document CHEMBL1144029, “Characterization of type II ligands in CYP2C9 and CYP3A4” (J Med Chem, 2008).

Assay [1] has as its target T1, Cytochrome P450 3A4 (Homo sapiens, UniProt P08684). The assay is described as follows: Inhibition of human recombinant CYP3A4 expressed in Saccharomyces cerevisiae by fluorescence assay. The format is ADME.
In assay [2] the target is T2, Cytochrome P450 2C9 (Homo sapiens, UniProt P11712). The assay is described as follows: Inhibition of human recombinant CYP2C9 expressed in Saccharomyces cerevisiae by fluorescence assay. The format is ADME.
Assay [3] has as its target T1, Cytochrome P450 3A4. The assay is described as follows: Binding affinity to purified human recombinant CYP3A4 expressed in Escherichia coli assessed as spectral dissociation constant. The format is ADME.
Assay [4] is filed under the species Homo sapiens. The assay is described as follows: Selectivity for human recombinant CYP2C9 over human recombinant CYP3A4.
Assay [5] addresses T2, Cytochrome P450 2C9. The assay is described as follows: Binding affinity to purified human recombinant CYP2C9 expressed in Escherichia coli assessed as spectral dissociation constant. Format: ADME.

Bounds are passed on as bounds.

T1 sequence (P08684 whole entry): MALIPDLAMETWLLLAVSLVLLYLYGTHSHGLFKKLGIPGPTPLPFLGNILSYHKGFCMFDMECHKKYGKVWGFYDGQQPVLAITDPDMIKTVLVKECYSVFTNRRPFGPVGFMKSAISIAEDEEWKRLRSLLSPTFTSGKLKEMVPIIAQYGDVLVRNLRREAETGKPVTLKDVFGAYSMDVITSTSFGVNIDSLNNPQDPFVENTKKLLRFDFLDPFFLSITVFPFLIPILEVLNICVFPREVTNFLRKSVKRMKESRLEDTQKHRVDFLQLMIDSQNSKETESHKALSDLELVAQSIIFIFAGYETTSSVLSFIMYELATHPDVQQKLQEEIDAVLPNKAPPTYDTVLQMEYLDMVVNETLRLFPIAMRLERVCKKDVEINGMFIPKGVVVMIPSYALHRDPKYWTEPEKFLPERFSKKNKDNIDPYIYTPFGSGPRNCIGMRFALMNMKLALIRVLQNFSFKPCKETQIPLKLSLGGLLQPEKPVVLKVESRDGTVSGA
T2 sequence (P11712 whole entry): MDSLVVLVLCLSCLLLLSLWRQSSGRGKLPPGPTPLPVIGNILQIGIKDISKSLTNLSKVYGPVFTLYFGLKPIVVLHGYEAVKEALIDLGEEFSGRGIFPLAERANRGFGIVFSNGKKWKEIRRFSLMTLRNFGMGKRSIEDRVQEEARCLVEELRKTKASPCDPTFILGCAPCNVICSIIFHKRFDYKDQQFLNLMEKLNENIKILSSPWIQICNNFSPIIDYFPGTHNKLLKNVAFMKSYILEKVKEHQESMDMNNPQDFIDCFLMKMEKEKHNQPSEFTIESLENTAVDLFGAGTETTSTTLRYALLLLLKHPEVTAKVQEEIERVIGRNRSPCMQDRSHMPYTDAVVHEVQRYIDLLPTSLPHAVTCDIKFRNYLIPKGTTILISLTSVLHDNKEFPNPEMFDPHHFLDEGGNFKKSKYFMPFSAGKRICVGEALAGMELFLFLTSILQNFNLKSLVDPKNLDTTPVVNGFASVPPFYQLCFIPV

Regarding `CS(=O)(=O)Cc1cc(N2CCCC2)nc(-c2ccncc2)n1`, the IC50 is 1.3 µM in assay [1] and more than 50 µM in assay [2].

In the case of `CCC1COC(Cn2cncn2)(c2ccc(Cl)cc2Cl)O1` (centres undefined) [ETACONAZOLE], the dissociation constant (Kd) in assay [3] was 0.21 µM. Besides, the results for the IC50 in assay [1] and in assay [2] were 0.21 µM and more than 50 µM, respectively.

As for `CCOC(=O)C(Cc1ccc(Cl)cc1Cl)c1ccno1` (centres undefined), the IC50 is 12 µM in assay [1] and 11 µM in assay [2].

For `Cc1cnc(CNc2cc(-c3ccccc3)nc(-c3cccnc3)n2)nc1`, the IC50 in assay [1] was 9.6 µM; in assay [2], 21 µM.

Turning to `CS(=O)(=O)c1ccc(Cn2cc(-c3ccncc3)cn2)cc1`, the Selectivity ratio in assay [4] was 20. Moreover, the figures for the IC50 in assay [1] and in assay [2] were 26 µM and 1.3 µM, respectively.

On to `O=C(Nc1ccccc1)OCc1cn(-c2ccc(Cl)cc2)nn1`, for which the IC50 in assay [1] is more than 20 µM.

Turning to `Brc1ccc(-n2c(SCc3ccccc3)nnc2-c2ccncc2)cc1`, the IC50 in assay [1] turned out to be 1.3 µM; in assay [2] it was 4.3 µM.

As for `COC(=O)[C@H](Cc1cnc[nH]1)NCc1ccccc1`, the IC50 in assay [1] came out at 1.5 µM; in assay [2] it was 20 µM.

As for `CCOc1ccc(NC(=O)c2ccc(-n3cnnn3)cc2)cc1`, the IC50 in assay [1] is 34 µM; in assay [2], more than 30 µM.

For `O[C@](Cn1cccn1)(c1ccc(F)cc1F)n1cncn1`, the IC50 in assay [1] is 44 µM; in assay [2], more than 50 µM.

Regarding `Clc1ccc(Cn2cc(-c3ccncc3)cn2)c(Cl)c1`, the Kd in assay [3] was determined as 0.38 µM; in assay [5], 3.6 µM. Also, the results for the IC50 in assay [1] and in assay [2] were 0.23 µM and 0.5 µM, respectively.

In the case of `Cc1cc(C(C)(C)NC(=O)C(Br)C(C)(C)C)cc(C)n1` (centres undefined), the IC50 was 13 µM in assay [1] and more than 50 µM in assay [2].

As to `CS(=O)(=O)OCC1COC(Cn2cncn2)(c2ccc(Cl)cc2Cl)O1` (centres undefined), the Kd in assay [3] is 3.5 µM. Moreover, the values for the concentration for half-maximal inhibition (IC50) in assay [1] and in assay [2] were 7.7 µM and more than 50 µM, respectively.

`Clc1ccc(C2(Cn3cncn3)CC(Br)CO2)c(Cl)c1` (centres undefined) [BROMUCONAZOLE]: the values for the IC50 in assay [1] and in assay [2] were 0.13 µM and 8.1 µM, respectively.

Regarding `CCn1c(SCc2ccc(OC)cc2)nnc1-c1ccncc1`, the figures for the IC50 in assay [1] and in assay [2] were 28 µM and more than 50 µM, respectively.

For `Cc1cnc(CNc2cc(-c3ccccc3)nc(-c3ccncc3)n2)nc1`, the 50% inhibitory concentration (IC50) in assay [1] turned out to be 0.071 µM; in assay [2], 4.8 µM.

Regarding `COc1ccc(-c2cc(CNS(=O)(=O)c3ccccc3)on2)cc1`, the IC50 in assay [1] is 33 µM; in assay [2] it was 39 µM.

Regarding `Clc1ccc(OC(Cn2ccnc2)c2ccc(Cl)cc2Cl)c(Cl)c1` (centres undefined), the IC50 in assay [1] is 0.06 µM; in assay [2] it was 10 µM.

Regarding `CS(=O)(=O)Cc1cc(N2CCCC2)nc(-c2ccccc2)n1`, the 50% inhibitory concentration (IC50) in assay [1] is more than 40 µM; in assay [2] it was more than 50 µM.

Take `Cc1cnc(CNc2cc(-c3ccccc3)nc(-c3ccccn3)n2)nc1`: the results for the IC50 in assay [1] and in assay [2] were more than 40 µM and more than 50 µM, respectively.

As a reminder, the IC50 is the concentration that gives 50% inhibition. One may read the Kd as a measure of binding affinity in units of concentration.
